Assay [1] deals with PD patient fibroblasts (ND29542). In words: Rescue of PD patient fibroblasts from BSO plus iron-induced oxidative stress. Type of assay: cell-based, human. Particulars: BSO (125 μM) plus iron (125 μM); for Max Rescue (@ 500 nM): 500 nM compound, unit assumed; for EC50: Homo sapiens, Fibroblast, concentration at which 50% maximal rescue of cell viability was observed. How it is done:
An initial screen was performed to identify the effectiveness of compounds for the amelioration of PD and AD. Test samples and solvent controls were tested for their ability to rescue PD and AD fibroblasts stressed by addition of L-buthionine-(S,R)-sulfoximine (BSO, a specific inhibitor of GSH synthetase) plus iron (e.g. iron citrate), in a similar manner as that described in Jauslin et al., Hum. Mol. Genet. 11(24):3055 (2002), Jauslin et al., FASEB J. 17:1972-4 (2003), and International Patent Application WO 2004/003565. This specific BSO-mediated cell death was prevented or ameliorated by administration of compounds described herein.
The AD experiments were performed as follows. PD experiments were performed in a similar manner; certain specific conditions are noted below in Table 1A.
MEM (a medium enriched in amino acids and vitamins) and Medium 199 (M199) with Earle's Balanced Salts (EBS), without phenol red, were purchased from Invitrogen. Fetal Calf Serum was obtained from Corning. Basic fibroblast growth factor (bFGF) and epidermal growth factor (EGF) were purchased from PeproTech. Penicillin-streptomycin-glutamine mix, L-buthionine (S,R)-sulfoximine, iron citrate, and insulin from bovine pancreas were purchased from Sigma. Calcein AM was purchased from Anaspec. Cell Culture Medium was prepared by combining 450 mL MEM, 50 mL Fetal Calf Serum, 100 U/mL penicillin, and 100 microgram/mL streptomycin. Assay medium was prepared by combining 125 mL M199, 50 mL Fetal Calf Serum, 100 U/mL penicillin, 100 microgram/mL streptomycin, 2 mM glutamine, 10 microgram/mL insulin, 10 ng/mL EGF, and 10 ng/mL bFGF; MEM was added to make the volume up to 500 mL. 10 mM BSO and 10 mM iron citrate solutions were prepared in water with subsequent filter-sterilization and stored at −20° C.
The test samples were supplied in 1.5 mL glass vials or polypropylene vials. The compounds were diluted with DMSO, to result in a 1 mM stock solution. Once dissolved, they were stored at −20° C.
A culture of AD or PD patient-derived fibroblasts was started from a vial with approximately 500,000 cells stored in liquid nitrogen. Cells were propagated in Cell Culture Medium, with subcultivation every third day by trypsinization at a ratio of 1:3. Once confluent, fibroblasts were harvested by trypsinization, resuspended in Assay Medium, and seeded at a final cell density of 2,500 cells/0.1 mL per well of a standard 96-well tissue culture plate. […]
100 microliters of Calcein AM (1 microM) in PBS+Ca+Mg was then added to each well. […] After that time fluorescence (excitation/emission wavelengths of 485 nm and 525 nm, respectively) was read on a Spectramax fluorescence reader. Data were analyzed using standard four-parameter curve fit algorithms (XLFit or Prism) to determine the EC50 concentration for each compound.

In assay [2] the target is T1, recombinant human αSynuclein (Homo sapiens, UniProt P37840).
T1 construct: purchased Proteos, Inc
The experiment in a line: Cell-free αSynuclein aggregation assay (Thioflavin T). It counts as biochemical. Particulars: 200 μM αSynuclein, 100 μM compound, t=24 hours, one-way ANOVA with Tukey's test. How it is done:
Summary: The compound 2,3,5-trimethyl-6-nonylcyclohexa-2,5-diene-1,4-dione (“C9”), and its C8 (2,3,5-trimethyl-6-octylcyclohexa-2,5-diene-1,4-dione) and C7 (2,3,5-trimethyl-6-heptylcyclohexa-2,5-diene-1,4-dione) analogs were tested for their function as inhibitors of αSynuclein aggregation, as measured by the presence and extent of a lag phase in the kinetics of protein aggregation. Changes in the fluorescence intensity by the aggregate-binding fluorophore, Thioflavin T, were followed to report on the protein aggregation as a function of time.
Experimental Methods: Cell-free αSynuclein aggregation assays were set up with 200 μM of recombinant human αSynuclein (Proteos, Inc.) in the presence of 100 μM of compound (from 10 mM stock solutions in DMSO) or in 1% (v/v) DMSO as vehicle. All solutions were prepared in Dulbecco's phosphate-buffered saline (DPBS) buffer (pH 7.4) with 0.03% (v/v) NaN3 and 5 μM Thioflavin T (ThT), prepared as a master mix before addition of the protein or compounds. A protein master mix was then prepared and separated into 4 tubes (1 per condition). […]
Protein solution+/−compound and background samples were then loaded into wells of an optically transparent 96-well plate with black walls (Corning Costar), which was sealed with a LightCycler® 480 seal (Roche Life Science), incubated at 37° C. for 15 minutes to equilibrate, after which the data collection was started. A Tecan M1000 spectrometer was used to collect data points on ThT fluorescence (ex/em 450/490 nm) every 30 minutes. The plate was agitated by shaking in between fluorescence reads.
Data Analysis and Results: Fluorescence intensity data were collected on all the samples over time. The endpoint fluorescence intensity unit (FIU) value of the mean of vehicle-treated αSyn samples was set to 100%, and all other FIU values were normalized relative to it (see FIG. 1A). The end results were plotted as normalized ThT fluorescence (%) with respect to time.
Normalized ThT fluorescence values (% FIU) at t=24 hours were used to compare samples (see FIG. 1B). […]

The text below walks through data of patent publication US20230339835A1, “2,3,5-TRIMETHYL-6-NONYLCYCLOHEXA-2,5-DIENE-1,4-DIONE FOR SUPPRESSING AND TREATING ALPHA-SYNUCLEINOPATHIES, TAUOPATHIES, AND OTHER DISORDERS” (PTC THERAPEUTICS, INC., priority 2018, published 2023).

The EC50 is the concentration that produces a half-maximal response. `CCCCCCCCCC1=C(C)C(=O)C(C)=C(C)C1=O` [Compound C9, 2,3,5-trimethyl-6-nonylcyclohexa-2,5-diene-1,4-dione]: in assay [1], the Max Rescue (@ 500 nM) was 103% and the concentration giving a half-maximal response (EC50) stood at 84 nM. Moreover, the “inhibition of αSynuclein aggregation (normalized ThT fluorescence vs vehicle)” value in assay [2] is listed as “significant inhibition effect”.
The matching figures for `CCCCCCCCC1=C(C)C(=O)C(C)=C(C)C1=O` [Compound C8, 2,3,5-trimethyl-6-octylcyclohexa-2,5-diene-1,4-dione, reference compound]: 73%, > 500 nM and “not statistically significant”.
